In patent publication US9801955B2, “Methods and compositions for detecting drusen and predicting age-related macular degeneration” (University of Maryland, Baltimore, priority 2012, dated 2017):

How the values were obtained:
[1] = Fluorescent staining of cadaver posterior retinas (sub-RPE deposits, drusen); design: species or system human; details: for increase in apparent intensity over the fluorescent background of the sub-RPE alone: cadaver posterior retinas
[2] = Staining of insoluble zinc phosphate (Example 1); format: binding
[3] = Fluorescent staining of zinc phosphate, specificity control (Example 2, FIG. 6); format: binding; details: 25 mM MOPS pH 7.5
Description: (§1) Briefly, the insoluble salts (100 mg in 1 ml 25 mM MOPS pH 7.5 buffer) were stained with 100 ul of 1 mg/ml dye (0.02 nmol/uL of the Bone Tag 680 RD dye) in buffer for 20 minutes at room temperature, followed by two rinses with buffer. Approximately 100 ul of the precipitate (a slurry) was suspended in propylene glycol. Fluorescence emission spectra shown in FIG. 6 were obtained at the excitation wavelengths described in the legend. […] Sub-RPE deposits can be readily identified based on their characteristic faint autofluorescence at excitation: 488 nm and emission: 525 nm).

[4] = Staining of tribasic calcium phosphate; format: binding; details: compared with HAP
From the text: (§2) Hydroxyapatite Bio-Gel HTP resin (Bio-Rad catalog 130-0420) (Bio-Red Laboratories, Inc., Hercules, Calif.) was used as a model for hydroxyapatite in deposits for purposes of collecting emission spectra; stained resin particles were suspended in propylene glycol for fluorescence spectroscopy. Calcium phosphate tribasic (34-40% Ca basis, cat no. C5267), Calcium hydrogen phosphate dihydrate (dibasic, 98%, cat. No. 307653) and calcium phosphate monobasic monohydrate (>85%, cat no. 21053) were all products of Sigma Aldrich and used without further purification. Fluorescence spectra were obtained on a Spectronics AB-2 spectrophotofluorometer with a high pressure xenon lamp.
(§3) The dibasic form of calcium phosphate is listed as 98% pure. […] IRDye 680RD BoneTag was also tested on HAP and drusen. This probe is a long wavelength excitable fluorophore coupled to tetracycline designed as an in vivo bone stain (J. L. Kovar et al., 2011 Anal. Biochem. 416(2):167-173).

[5] = Fluorescent staining of dibasic calcium phosphate, emission spectra (Example 2, FIG. 6); format: binding; details: 25 mM MOPS pH 7.5
Description: as §1

[6] = Staining of monobasic calcium phosphate; format: binding; details: salt slightly soluble
From the text: as §2, §3

[7] = Fluorescent staining of HAP chromatographic medium as a model for drusen; format: binding
From the text: as §2, §3

[8] = Fluorescent staining of authentic hydroxyapatite, emission spectra (Example 2, FIG. 6); format: binding; details: for fluorescence of stained hydroxyapatite: 100 mg salt in 25 mM MOPS pH 7.5, 20 minutes at room temperature, suspended in propylene glycol; for specificity for HAP in comparison to dibasic calcium phosphate or zinc phosphate: FIG. 6
Description: as §1

[9] = Staining of dibasic calcium phosphate (Example 1); format: binding; details: compared with HAP
From the text: as §2, §3

[10] = Staining of the elastin layer of the Bruch's membrane in cadaver retina; design: species or system human
[11] = Staining of HAP spherules in sub-RPE deposits in flat mounts of cadaver tissues (FIG. 7); design: species or system human; details: for staining of HAP spherules in sub-RPE deposits: flat mounts of cadaver tissues; for staining pattern in retinal tissue: human cadaveric eyes, FIG. 7
Description: The protocol of the study adhered to the tenets of the Declaration for Helsinki regarding research involving human tissue.
as §1

[12] = Nile Red staining of neutral lipids in unfixed whole mounts with drusen on Bruch's membrane (FIG. 8); design: species or system human
Description: Flat mounts were stained with 1 mg/ml Alizarin Red S (Sigma-Aldrich; Ex: 532 nm Em:620 nm), 20 μM Bone-Tag 680RD (Li-Cor; Ex: 620 nm Em:680 nm), 1 mg/ml tetracycline (Sigma-Aldrich; Ex: 405 nm Em: 570 nm), and 1 mg/ml Xylenol Orange (Sigma-Aldrich; Ex: 532 nm Em:570 nm) in aqueous buffer for 20 minutes at room temperature. Nile Red (Invitrogen, Carsbad, Calif.; Ex: 532 nm Em: 620 nm) was first dissolved in acetone and then diluted in aqueous buffer to 3.5 mg/ml and tissues were incubated for 20 minutes at room temperature.
Without being bound by theory or mechanism, HAP may form on the surface of an existing structure at the RPE/BM interface, for example lipid droplets or lipoproteins. […] The composition of the inner core of HAP spherules was analyzed by mass spectrometric imaging (FIG. 3). […] The native chemical composition was then analysed with time-of-flight secondary ion mass spectrometry (TOF-SIMS), which is well suited, as it combines high lateral resolution (˜250 nm) and very high sensitivity in the range of parts per million, and can image molecular ions and organic molecules over a wide mass range. […] The m/e 184 ion (i.e. from the phosphocholine headgroup fragment from phospholipids) is readily detected by TOF-SIMS as a characteristic marker, so its absence from the spherules implies a strong predominance of cholesterol and/or cholesteryl esters within the spherules.

| Structure (SMILES) | contrast compared with tetracycline ([1]; cadaver posterior retina, excitation 550-600 nm, emission 650 nm) | increase in apparent intensity over the fluorescent background of the sub-RPE alone [1] | adherence of stain to insoluble zinc phosphate [2] | staining of zinc phosphate [3] | staining of tribasic calcium phosphate [4] | staining of dibasic calcium phosphate [5] | staining of monobasic calcium phosphate [6] | change in fluorescence quantum yield upon binding HAP [7] | fluorescent staining of HAP (fluorescence emission when bound) ([7]; HAP chromatographic medium, stained, rinsed in distilled water, suspended in propylene glycol) | fluorescence of stained hydroxyapatite [8] | specificity for HAP in comparison to dibasic calcium phosphate or zinc phosphate [8] | staining of dibasic calcium phosphate [9] | staining of the elastin layer of the Bruch's membrane [10] | staining of HAP spherules in sub-RPE deposits [11] | staining pattern in retinal tissue [11] | labelling of lipid inclusions in drusen [12] |
| --- | --- | --- | --- | --- | --- | --- | --- | --- | --- | --- | --- | --- | --- | --- | --- | --- |
| O=C1c2ccccc2C(=O)c2c1cc(S(=O)(=O)O)c(O)c2O [Alizarin Red S, 9,10-dihydro-3,4-dihydroxy-9,10-dioxo-2-anthracenesulfonic acid] | two-fold | fifteen-fold | did not appear that either stain was adhered | did not stain significantly | less well than HAP | did not stain significantly | no staining was evident | substantial increase | bright fluorescence emission when bound to the HAP that did not rinse off despite repeated washes with buffer | only significant fluorescence from stained specimens is observed with hydroxyapatite | specific for HAP | less well than HAP | No staining | effectively stained spherules | very similar staining patterns | – |
| CCN(CC)c1ccc2nc3c4ccccc4c(=O)cc-3oc2c1 [Nile Red] | – | – | – | – | – | – | – | – | – | – | – | – | – | – | – | labelled a large number of spherical inclusions |
| CN(C)[C@@H]1C(O)=C(C(N)=O)C(=O)[C@@]2(O)C(O)=C3C(=O)c4c(O)cccc4[C@@](C)(O)[C@H]3C[C@@H]12.Cl [Tetracycline HCl, Tetracycline hydrochloride] | – | eight-fold | – | – | less well than HAP | – | – | – | – | – | – | less well than HAP | – | – | – | – |
| Cc1cc(C2(c3cc(C)c(O)c(CN(CC(=O)O)CC(=O)O)c3)OS(=O)(=O)c3ccccc32)cc(CN(CC(=O)O)CC(=O)O)c1O [Xylenol Orange] | – | – | – | did not stain significantly | – | did not stain significantly | – | – | – | only significant fluorescence from stained specimens is observed with hydroxyapatite | specific for HAP | – | – | effectively stained spherules | very similar staining patterns | – |
